Experimental data reported in patent US9233086B2 (THE REGENTS OF THE UNIVERSITY OF MICHIGAN, priority 2010, dated 2016).
Read-outs that look alike come from different tables or passages of the source. *1 amine or outer side, *2 acyl side, *3 side chain or, on linkers, in order; H or OH if unused. Where a SMILES comes first, the peptide text is derived from it. [ ]: non-standard residue; d: D form. The star is where a group is joined. NHPhenethyl = c1ccc(CCN*)cc1; Isobutyryl = CC(C)C(=O)*; Ac4c = NC1(C(=O)O)CCC1; Deg = CCC(N)(CC)C(=O)O; Pentanoyl = CCCCC(=O)*; PhAc = O=C(Cc1ccccc1)*; Aib = CC(C)(N)C(=O)O; CO = O=C([*:1])[*:2]; NHBn = c1ccc(CN*)cc1; NHPh = c1ccc(N*)cc1; NHiPr = CC(C)N*; For = O=C*

Target: WDR5 (Homo sapiens (Human), UniProt P61964)
Assay: FP based competitive binding assay to WDR5
Details: for times less potent than Ac-3mer: ratio vs Ac-3mer; for fold increase of binding affinity to WDR5 on acetylation of the free amino group: vs corresponding unacetylated H3 peptide
Procedure: Another aspect of the invention is development of a Fluorescent Polarization (FP) based competitive binding assay. […] Next, the millipolarization (mP) values were measured at different time points in order to determine equilibrium duration and stability.
Accordingly, the optimal protein concentrations for the competitive assay was investigated.
All the FP based experiments were performed in MICROFLUOR® 2 Black, “U” Bottom, 96-well Microtiter Plates (ThermoSci.) and FP was measured as mP units in a microplate reader (Tecan Ultra) with excitation at 485 nm and emission at 530 nm. The Kd of the tracers and the IC50 value of the inhibitors were calculated using GraphPad Prism 4 software.
The binding affinities of the synthetic peptides shown in the study were measured using this competitive binding assay. A pre-incubated complex solution of WDR5Δ23 and the tracer in 120 μl assay buffer were added to dilutions of the test compound in 5 μl DMSO, giving final concentrations of WDR5Δ23 and the tracer of 4 nM and 0.6 nM, respectively. […] The plates were incubated with shaking at room temperature. The mP values were measured after five hours of incubation and Ki values were calculated using the equation described previously(31).

[1] = read-out: Binding Affinity to WDR5 (IC50 ± SD), Table 5 peptidomimetics
[2] = 4 nM WDR5Δ23, 0.6 nM 10mer-Thr-FAM tracer, Ki calculated by equation of ref. 31, read-out: Ki ± SD
[3] = 4 nM WDR5Δ23, 0.6 nM 10mer-Thr-FAM tracer, read-out: IC50 ± SD

| Compound | IC50 [1] [µM] | further results |
| --- | --- | --- |
| CC(=O)NC1(C(=O)N[C@@H](CCCNC(=N)N)C(=O)N[C@H](C(N)=O)C(C)C)CCC1 [Compound 4B] | < 1 |  |
| C[C@H](NC(=O)[C@H](CCCNC(=N)N)NC(=O)[C@H](C)NC(=O)C1CCC1)C(N)=O [Compound 9F] | < 10 |  |
| CCC(CC)(NC(=O)C(C)C)C(=O)N[C@H](CCCNC(=N)N)C(=O)NC1(C(N)=O)CCCC1 [Compound 10D] | < 20 |  |
| CC[C@H](NC(=O)[C@H](CCCNC(=N)N)NC(=O)C(CC)(CC)NC(=O)C(C)C)c1ccccc1 [Compound 11K] | < 3 |  |
| CC(=O)NC1(C(=O)N[C@@H](CCCNC(=N)N)C(=O)N[C@H](C(N)=O)C(C)C)CC1 [Compound 4A] | < 1 |  |
| CCCCC(=O)N[C@@H](C)C(=O)N[C@@H](CCCNC(=N)N)C(=O)N[C@@H](C)C(N)=O [Compound 9D] (Pentanoyl-Ala-Arg-Ala-NH2) | > 10 |  |
| C[C@H](N)C(=O)N[C@@H](CCCNC(=N)N)C(=O)N[C@@H](C)C(N)=O [Compound H2N-3mer, H2N-ARA-NH2] (H-Ala-Arg-Ala-NH2) |  | binding to WDR5 (in words): does not bind to WDR5 up to the concentrations tested |
| CC(=O)N[C@@H](C)C(=O)N[C@@H](CCCNC(=N)N)C(=O)N[C@@H](C)C(=O)NC(C)C [Compound 7A] (Ac-Ala-Arg-Ala-NHiPr) | < 1 |  |
| C[C@H](NC(=O)[C@H](CCCNC(=N)N)NC(=O)[C@H](C)NC(=O)N(C)C)C(N)=O [Compound 9J] ({NMe2-CO}-Ala-Arg-Ala-NH2) | < 100 |  |
| CC(=O)N[C@@H](C)C(=O)N[C@@H](CCCNC(=N)N)C(=O)N[C@@H](C)C(=O)N(C)C [Δ2b, Ac-ARA-CONMe2] (Ac-Ala-Arg-Ala-NMe2) |  | Ki [2]: 6.5 ± 1.2 µM; IC50 [3]: 30 ± 5 µM; times less potent than Ac-3mer: 50 |
| CC[C@H](NC(=O)[C@H](CCCNC(=N)N)NC(=O)C1(NC(C)=O)CCC1)C(=O)NC(c1ccccc1)c1ccccc1 [Compound 8B] | < 1 |  |
| CC(=O)NC1(C(=O)N[C@@H](CCCNC(=N)N)C(=O)N[C@H](C(N)=O)C(C)C)CCCC1 [Compound 4C] | < 1 |  |
| CCC(CC)(NC(=O)C(C)C)C(=O)N[C@@H](CCCNC(=N)N(C)C)C(=O)NC1(C(N)=O)CCCC1 [Compound 10G] | > 1 |  |
| CCC(CC)(NC(=O)C(C)C)C(=O)N[C@@H](CCCNC(=N)N)C(=O)Nc1ccccc1 [Compound 11C] (Isobutyryl-[Deg]-Arg-NHPh) | < 10 |  |
| CC(=O)N[C@H](C(=O)N[C@@H](CCCNC(=N)N)C(=O)NC1(C(N)=O)CCCC1)C(C)C [Compound 5C] | < 1 |  |
| CC(=O)N[C@@H](C)C(=O)N[C@H](C(=O)N[C@@H](C)C(N)=O)C1CCN(C(=N)N)CC1 [Compound 2G] | > 10 |  |
| CC(=O)N[C@@H](C)C(=O)N[C@@H](CCCN)C(=O)N[C@@H](C)C(N)=O [Compound 2B] | > 1 |  |
| C[C@H](NC(=O)[C@H](CCCNC(=N)N)NC(=O)[C@H](C)NC(=O)C1CC1)C(N)=O [Compound 9E] | < 5 |  |
| CC[C@H](NC(=O)[C@H](CCCNC(=N)N)NC(=O)C(C)(C)NC(C)=O)C(N)=O [Compound 6A] | < 1 |  |
| CC[C@H](C)NC(=O)[C@H](CCCNC(=N)N)NC(=O)C(CC)(CC)NC(=O)C(C)C [Compound 11A] | < 3 |  |
| CC(=O)N[C@@H](C)C(=O)N[C@@H](CCCNC(=N)N)C(=O)N[C@H](C(=O)N[C@@H](CCCCN)C(=O)N[C@@H](CCC(N)=O)C(=O)N[C@H](C(=O)N[C@@H](C)C(=O)N[C@@H](CCCNC(=N)N)C(=O)N[C@@H](CCCCN)C(=O)N[C@@H](CO)C(N)=O)[C@@H](C)O)[C@@H](C)O [Ac-H3-10mer] |  | IC50 [3]: 0.006 ± 0.002 µM; fold increase of binding affinity to WDR5 on acetylation of the free amino group: greater than 10,000 |
| CCC(CC)(NC(=O)C(C)C)C(=O)N[C@@H](CCCNC(=N)N)C(=O)N[C@H](C)c1ccccc1 [Compound 11F] | < 30 |  |
| CC(=O)NC1(C(=O)N[C@@H](CCCNC(=N)N)C(=O)N[C@H](C(N)=O)[C@@H](C)O)CCC1 [Compound 6F] (Ac-[Ac4c]-Arg-Thr-NH2) | < 1 |  |
| CC(=O)N[C@@H](C)C(=O)N[C@@H](CCCNC(=N)N)C(=O)N(C)[C@@H](C)C(N)=O [Δ1, Ac-AR-(N—Me)A-NH2] |  | binding to WDR5 (in words): complete loss of its binding to WDR5 |

| Compound | IC50 [1] [µM] | further results |
| --- | --- | --- |
| CC(=O)N[C@@H](C)C(=O)N[C@@H](CCCNC(=N)N)C(=O)N[C@@H](C)C(=O)NCc1ccccc1 [Compound 7E] (Ac-Ala-Arg-Ala-NHBn) | < 1 |  |
| CNC(=O)N[C@@H](C)C(=O)N[C@@H](CCCNC(=N)N)C(=O)N[C@@H](C)C(N)=O [Compound 9K] ({NHMe-CO}-Ala-Arg-Ala-NH2) | < 10 |  |
| CC(=O)N[C@@H](C)C(=O)N[C@@H](CCCNC(=N)N)C(=O)N[C@@H](C)C(=O)NC(c1ccccc1)c1ccccc1 [Compound 7F] | < 1 |  |
| CCC(CC)(NC(=O)C(C)C)C(=O)N[C@@H](CCCNC(=N)N)C(=O)NCCc1ccccc1 [Compound 11L] (Isobutyryl-[Deg]-Arg-NHPhenethyl) | > 10 |  |
| CC(=O)N[C@@H](C)C(=O)N[C@@H](CCCNC(=N)N)C(=O)N[C@H](C(N)=O)[C@@H](C)O [Ac-H3-3mer, Ac-ART-NH2] (Ac-Ala-Arg-Thr-NH2) |  | IC50 [3]: 0.08 ± 0.003 µM; Ki (read-out: Ki): 0.02 µM; fold increase of binding affinity to WDR5 on acetylation of the free amino group: 1500 |
| C[C@H](N)C(=O)N[C@@H](CCCNC(=N)N)C(=O)N[C@H](C(=O)N[C@@H](CCCC[N+](C)(C)C)C(=O)N[C@@H](CCC(N)=O)C(=O)N[C@H](C(=O)N[C@@H](C)C(=O)N[C@@H](CCCNC(=N)N)C(=O)N[C@@H](CCCCN)C(=O)N[C@@H](CO)C(N)=O)[C@@H](C)O)[C@@H](C)O [L3-10mer-K4Me3, H2N-ARTK(Me3)QTARKS-NH2, reference compound] |  | Ki [2]: 15.6 ± 1.2 µM; IC50 [3]: 73 ± 6 µM |
| CC(=O)N[C@@H](C)C(=O)N[C@@H](CCCNC(=N)N)C(=O)N[C@@H](C)C(=O)NC1CCCCC1 [Compound 7C] | < 1 |  |
| Ac-RAEVHLRKS-NH2 [Ac-9mer] |  | fold decrease of binding affinity relative to Ac-10mer (ratio vs Ac-10mer): 1500 |
| CCC(CC)(NC(=O)C(C)C)C(=O)N[C@@H](CCCNC(=N)N)C(=O)N[C@@H](C)c1ccccc1 [Compound 11G] | < 30 |  |
| CC(C)C(=O)NC1(C(=O)N[C@@H](CCCNC(=N)N)C(=O)NC2(C(=O)NC(c3ccccc3)c3ccccc3)CCCC2)CCC1 [Compound 10B] | < 1 |  |
| CC(=O)N[C@H](C(=O)N[C@@H](CCCNC(=N)N)C(=O)NC1(C(N)=O)CCCCC1)C(C)C [Compound 5D] | < 10 |  |
| C[C@H](NC(=O)[C@H](CCCNC(=N)N)NC(=O)[C@H](C)NC=O)C(N)=O [CHO-3mer, CHO-ARA-NH2] (For-Ala-Arg-Ala-NH2) |  | Ki [2]: 3.2 ± 0.3 µM; IC50 [3]: 14.9 ± 1.4 µM; times less potent than Ac-3mer: 25 |
| CC(C)C(=O)N[C@@H](C)C(=O)N[C@@H](CCCNC(=N)N)C(=O)N[C@@H](C)C(N)=O [Compound 9A] (Isobutyryl-Ala-Arg-Ala-NH2) | < 1 |  |
| C[C@H](NC(=O)[C@H](CCCNC(=N)N)NC(=O)[C@H](C)NC(=O)Cc1ccccc1)C(N)=O [Compound 9I] (PhAc-Ala-Arg-Ala-NH2) | > 25 |  |
| CC(=O)NC(C)(C)C(=O)N[C@@H](CCCNC(=N)N)C(=O)NC1(C(N)=O)CCCC1 [Compound 6B] | < 1 |  |
| CC(=O)NC(C)(C)C(=O)N[C@@H](CCCNC(=N)N)C(=O)N[C@H](C(N)=O)[C@@H](C)O [Compound 6C] (Ac-[Aib]-Arg-Thr-NH2) | < 1 |  |
| C[C@H](NC(=O)[C@H](CCCNC(=N)N)NC(=O)[C@H](C)NC(=O)CC1CCCC1)C(N)=O [Compound 9G] | > 1 |  |
| C[C@H](N)C(=O)N[C@@H](CCCNC(=N)N)C(=O)N[C@H](C(N)=O)[C@@H](C)O [Compound H3-3mer, H2N-ART-NH2, reference compound] (H-Ala-Arg-Thr-NH2) |  | Ki [2]: 27.3 ± 2.5 µM; IC50 [3]: 127 ± 12 µM |
| CCC(CC)(NC(=O)c1ccccc1)C(=O)N[C@@H](CCCNC(=N)N)C(=O)NC1(C(=O)NC(c2ccccc2)c2ccccc2)CCCC1 [Compound 10I] | > 5 |  |
| Ac-ARAEVH-NH2 [Ac-6mer, Ac-ARAEVH-NH2] |  | IC50 (read-out: IC50 ± SD): 0.4 ± 0.1 µM; Ki (read-out: Ki ± SD): 0.09 ± 0.02 µM |
| CCC(CC)(NC(C)=O)C(=O)N[C@@H](CCCNC(=N)N)C(=O)NC1(C(N)=O)CCCC1 [Compound 6G] | < 1 |  |
| CC(=O)N[C@@H](C)C(=O)N[C@@H](CCCNC(=N)N)C(=O)N[C@@H](C)C(=O)Nc1ccccc1 [Compound 7D] (Ac-Ala-Arg-Ala-NHPh) | < 1 |  |
| CCC(CC)(NC(=O)C(C)C)C(=O)N[C@@H](CCCNC(=N)N)C(=O)NCCCc1ccccc1 [Compound 11M] | > 1 |  |
